According to patent publication US20050142531A1, “Peptidically buffered formulations for electrotransport applications and methods of making” (priority 2003, published 2005):
Square brackets hold non-standard residues; d marks the D form. Peptide text beside a SMILES is read from it. Cit = NC(=O)NCCC[C@H](N)C(=O)O; Orn = NCCC[C@H](N)C(=O)O

Assay: pKa, pI and % salt of peptidic buffers
Assay type: physicochemical

| SMILES | pka A (acidic pKa) (Table 2, first acidic pKa) | pka B (basic pKa) (Table 2, first basic pKa) | pka B (basic pKa) (Table 2, second basic pKa) | pka B (basic pKa) (Table 2, third basic pKa) | pka A (acidic pKa) (Table 2, second acidic pKa) | pI (Table 2) | % salt (fraction ionized with net charge in aqueous solution at pH equal to the pI) [%] | pka A (acidic pKa) (Table 2, third acidic pKa) |
| --- | --- | --- | --- | --- | --- | --- | --- | --- |
| N[C@@H](Cc1c[nH]cn1)C(=O)N1CC(O)C[C@H]1C(=O)O (stereo partly shown) [His-Hydroxyproline] | 2.42 | 6.10 | 7.80 | – | – | – | – | – |
| N[C@@H](Cc1c[nH]cn1)C(=O)N[C@@H](Cc1c[nH]c2ccccc12)C(=O)O [His-Trp] | 3.07 | 6.10 | 7.80 | – | – | – | – | – |
| C[C@@H](O)[C@H](N)C(=O)N[C@@H](Cc1c[nH]cn1)C(=O)O [Thr-His] (H-Thr-His-OH; N-terminus and C-terminus assumed) | 2.42 | 6.71 | 7.60 | – | – | – | – | – |
| N[C@@H](Cc1c[nH]cn1)C(=O)N1CCC[C@H]1C(=O)O [His-Pro] | 2.62 | 6.10 | 7.80 | – | – | – | – | – |
| CSCC[C@H](N)C(=O)N[C@@H](Cc1c[nH]cn1)C(=O)O [Met-His] (H-Met-His-OH; N-terminus and C-terminus assumed) | 2.42 | 6.71 | 7.97 | – | – | – | – | – |
| N[C@@H](Cc1c[nH]cn1)C(=O)N[C@@H](Cc1c[nH]cn1)C(=O)O [His-His] | 2.25 | 5.40 | 6.80 | 7.95 | – | – | – | – |
| NCCC(=O)N[C@@H](Cc1cnc[nH]1)C(=O)O [Beta-Alanylhistidine] | 2.60 | 6.70 | 8.70 | – | – | 7.70 | 16 | – |
| CC[C@H](C)[C@H](NC(=O)[C@@H](N)Cc1c[nH]cn1)C(=O)O [His-Isoleucine] (H-His-Ile-OH; N-terminus and C-terminus assumed) | 3.13 | 6.10 | 7.80 | – | – | – | – | – |
| CC[C@H](C)[C@H](N)C(=O)N[C@@H](Cc1c[nH]cn1)C(=O)O [Isoleucine-His] (H-Ile-His-OH; N-terminus and C-terminus assumed) | 2.42 | 6.71 | 8.20 | – | – | – | – | – |
| N[C@@H](Cc1ccccc1)C(=O)N[C@@H](Cc1c[nH]cn1)C(=O)O [Phe-His] (H-Phe-His-OH; N-terminus and C-terminus assumed) | 2.42 | 6.71 | 7.70 | – | – | – | – | – |
| N[C@@H](CC(=O)O)C(=O)N[C@@H](CC(=O)O)C(=O)O [Asp-Asp] (H-Asp-Asp-OH; N-terminus and C-terminus assumed) | 2.70 | 8.26 | – | – | 3.40 | – | – | 4.70 |
| N=C(N)NCCC[C@H](NC(=O)[C@@H](N)CCC(=O)O)C(=O)O [Glu-Arg] (H-Glu-Arg-OH; N-terminus and C-terminus assumed) | 2.66 | 7.94 | 12.50 | – | 4.01 | – | – | – |
| N[C@@H](Cc1c[nH]cn1)C(=O)N[C@@H](Cc1ccccc1)C(=O)O [His-Phe] (H-His-Phe-OH; N-terminus and C-terminus assumed) | 2.88 | 6.10 | 7.80 | – | – | – | – | – |
| N[C@@H](Cc1ccc(O)cc1)C(=O)N[C@@H](Cc1c[nH]cn1)C(=O)O [Tyr-His] (H-Tyr-His-OH; N-terminus and C-terminus assumed) | 2.42 | 6.71 | 7.60 | – | 9.90 | – | – | – |
| N=C(N)NCCC[C@H](N)C(=O)N[C@@H](CCC(=O)O)C(=O)O [Arg-Glu] (H-Arg-Glu-OH; N-terminus and C-terminus assumed) | 2.74 | 7.92 | 12.50 | – | 4.18 | – | – | – |
| N=C(N)NCCC[C@H](NC(=O)[C@@H](N)Cc1ccc(O)cc1)C(=O)O [Tyr-Arg] | 2.64 | 7.39 | 11.62 | – | 9.36 | – | – | – |
| N[C@@H](Cc1c[nH]c2ccccc12)C(=O)N[C@@H](Cc1c[nH]cn1)C(=O)O [Trp-His] (H-Trp-His-OH; N-terminus and C-terminus assumed) | 2.42 | 6.71 | 7.90 | – | – | – | – | – |
| CC(C)[C@H](NC(=O)[C@@H](N)Cc1c[nH]cn1)C(=O)O [His-Val] (H-His-Val-OH; N-terminus and C-terminus assumed) | 3.18 | 6.10 | 7.80 | – | – | – | – | – |
| N[C@@H](Cc1c[nH]cn1)C(=O)N[C@@H](Cc1ccc(O)cc1)C(=O)O [His-Tyr] (H-His-Tyr-OH; N-terminus and C-terminus assumed) | 2.13 | 6.10 | 7.80 | – | 9.97 | – | – | – |
| O=C(O)[C@H](Cc1c[nH]cn1)NC(=O)[C@@H]1CC(O)CN1 (stereo partly shown) [Hydroxyproline-His] | 2.42 | 6.71 | 8.23 | – | – | – | – | – |

Now from value to molecule, other results behind:

| pka A (acidic pKa) (Table 2, first acidic pKa) | pka B (basic pKa) (Table 2, first basic pKa) | pka B (basic pKa) (Table 2, second basic pKa) | pka B (basic pKa) (Table 2, third basic pKa) | pka A (acidic pKa) (Table 2, second acidic pKa) | SMILES | pI (Table 2) | % salt (fraction ionized with net charge in aqueous solution at pH equal to the pI) [%] | pka A (acidic pKa) (Table 2, third acidic pKa) |
| --- | --- | --- | --- | --- | --- | --- | --- | --- |
| 3.05 | 6.10 | 7.80 | – | – | NC(=O)NCCC[C@H](NC(=O)[C@@H](N)Cc1c[nH]cn1)C(=O)O [His-Citrulline] (H-His-[Cit]-OH; N-terminus and C-terminus assumed) | – | – | – |
| 2.42 | 6.71 | 8.37 | – | – | C[C@H](N)C(=O)N[C@@H](Cc1c[nH]cn1)C(=O)O [Ala-His] (H-Ala-His-OH; N-terminus and C-terminus assumed) | – | – | – |
| 2.65 | 6.10 | 7.80 | – | – | N[C@@H](Cc1c[nH]cn1)C(=O)N[C@@H](CO)C(=O)O [His-Ser] (H-His-Ser-OH; N-terminus and C-terminus assumed) | – | – | – |
| 2.62 | 6.10 | 7.80 | – | – | NC(=O)C[C@H](NC(=O)[C@@H](N)Cc1c[nH]cn1)C(=O)O [His-Asn] (H-His-Asn-OH; N-terminus and C-terminus assumed) | – | – | – |
| 2.89 | 6.10 | 7.80 | – | – | CSCC[C@H](NC(=O)[C@@H](N)Cc1c[nH]cn1)C(=O)O [His-Met] (H-His-Met-OH; N-terminus and C-terminus assumed) | – | – | – |
| 2.82 | 6.10 | 7.80 | 11.00 | – | NCCC[C@H](NC(=O)[C@@H](N)Cc1c[nH]cn1)C(=O)O [His-Ornithine] (H-His-[Orn]-OH; N-terminus and C-terminus assumed) | – | – | – |
| 2.93 | 6.10 | 7.80 | – | – | NC(=O)CC[C@H](NC(=O)[C@@H](N)Cc1c[nH]cn1)C(=O)O [His-Gln] (H-His-Gln-OH; N-terminus and C-terminus assumed) | – | – | – |
| 3.05 | 6.10 | 7.80 | 11.00 | – | NCCCC[C@H](NC(=O)[C@@H](N)Cc1c[nH]cn1)C(=O)O [His-Lys] (H-His-Lys-OH; N-terminus and C-terminus assumed) | – | – | – |
| 2.42 | 6.71 | 7.40 | 9.70 | – | NCC(O)CC[C@H](N)C(=O)N[C@@H](Cc1c[nH]cn1)C(=O)O (stereo partly shown) [Hydroxylysine-His] | – | – | – |
| 2.45 | 6.81 | 8.20 | – | 3.45 | N[C@@H](CCC(=O)O)C(=O)N[C@@H](Cc1c[nH]cn1)C(=O)O [Glu-His] (H-Glu-His-OH; N-terminus and C-terminus assumed) | – | – | – |
| 2.42 | 6.71 | 7.30 | – | – | NC(=O)C[C@H](N)C(=O)N[C@@H](Cc1c[nH]cn1)C(=O)O [Asn-His] (H-Asn-His-OH; N-terminus and C-terminus assumed) | – | – | – |
| 3.10 | 6.10 | 7.80 | – | – | CC(C)C[C@H](NC(=O)[C@@H](N)Cc1c[nH]cn1)C(=O)O [His-Leu] (H-His-Leu-OH; N-terminus and C-terminus assumed) | – | – | – |
| 2.98 | 6.10 | 7.80 | – | – | C[C@@H](O)[C@H](NC(=O)[C@@H](N)Cc1c[nH]cn1)C(=O)O [His-Thr] (H-His-Thr-OH; N-terminus and C-terminus assumed) | – | – | – |
| 2.45 | 6.81 | 7.98 | – | 3.02 | N[C@@H](CC(=O)O)C(=O)N[C@@H](Cc1c[nH]cn1)C(=O)O [Asp-His] (H-Asp-His-OH; N-terminus and C-terminus assumed) | – | – | – |
| 2.42 | 6.71 | 7.70 | – | – | N[C@@H](CO)C(=O)N[C@@H](Cc1c[nH]cn1)C(=O)O [Ser-His] (H-Ser-His-OH; N-terminus and C-terminus assumed) | – | – | – |
| 2.42 | 6.71 | 7.30 | 11.00 | – | NCCC[C@H](N)C(=O)N[C@@H](Cc1c[nH]cn1)C(=O)O [Ornithine-His] | – | – | – |
| 2.42 | 6.71 | 7.90 | – | – | NC(=O)NCCC[C@H](N)C(=O)N[C@@H](Cc1c[nH]cn1)C(=O)O [Citrulline-His] (H-[Cit]-His-OH; N-terminus and C-terminus assumed) | – | – | – |
| 2.42 | 6.71 | 8.00 | 11.00 | – | NCCCC[C@H](N)C(=O)N[C@@H](Cc1c[nH]cn1)C(=O)O [Lys-His] | – | – | – |
| 2.42 | 6.71 | 7.70 | – | – | NC(=O)CC[C@H](N)C(=O)N[C@@H](Cc1c[nH]cn1)C(=O)O [GIn-His] (H-Gln-His-OH; N-terminus and C-terminus assumed) | – | – | – |
